Columns and labels:
HL 60 cells [1] = assay: differentiation induction of HL 60 cells to macrophages (NBT reduction); assay type: cell-based, human; details: DR = test substance dose/calcitriol dose for comparable semi-maximum effects; 96 hours incubation
Procedure: It is known in the literature (Mangelsdorf, D. J. et al., J. Cell. Biol. 98: 391-398 (1984)), that the treatment of human leukemia cells (promyelocyte cell line HL 60) in vitro with calcitriol induces the differentiation of cells to macrophages.
HL 60 cells are cultivated in tissue culture medium (RPMI 10% fetal calf serum) at 37° C. in an atmosphere of 5% CO2 in air.
For substance testing, the cells are centrifuged off, and 2.0×10^5 cells/ml in phenol red-free tissue culture medium is taken up. The test substances are dissolved in ethanol and diluted with tissue culture medium without phenol red to the desired concentration. The dilution stages are mixed with the cell suspension at a ratio of 1:10, and 100 μl each of this cell suspension that is mixed with substance is pipetted into an indentation of a 96-hole plate. For control, a cell suspension is mixed analogously with the solvent.
After incubation for 96 hours at 37° C. in 5% CO2 in air, 100 μl of an NBT-TPA solution (nitro blue tetrazolium (NBT), final concentration in the batch of 1 mg/ml, tetradecanoyl phorbolmyristate-13-acetate (TPA), final concentration in the batch of 2×10^−7 mol/l) is pipetted into each indentation of the 96-hole plate in the cell suspension.
By incubation for 2 hours at 37° C. and 5% CO2 in air, NBT is reduced to insoluble formazan because of the intracellular oxygen radical release, stimulated by TPA, in the cells that are differentiated to macrophages.
To complete the reaction, the indentations of the 96-hole plate are suctioned off, and the cells are affixed to the bottom of the plate by adding methanol and dried after affixing. To dissolve the intracellular formazan crystals that are formed, 100 μl of potassium hydroxide (2 mol/l) and 100 μl of dimethyl sulfoxide are pipetted into-each indentation and ultrasonically treated for 1 minute. The concentration of formazan is measured by spectrophotometry at 650 nm.
As a yardstick for the differentiation induction of HL 60 cells to macrophages, the concentration of formed formazan applies.

calcitriol receptor = biological target: T1, calcitriol receptor (Sus scrofa, UniProt A3RGC1); assay: calcitriol-receptor test (competition with 3H-calcitriol); details: quotient of concentrations of test substance and calcitriol for 50% competition, receptor protein from intestines of juvenile pigs
T1 sequence (A3RGC1 1-427): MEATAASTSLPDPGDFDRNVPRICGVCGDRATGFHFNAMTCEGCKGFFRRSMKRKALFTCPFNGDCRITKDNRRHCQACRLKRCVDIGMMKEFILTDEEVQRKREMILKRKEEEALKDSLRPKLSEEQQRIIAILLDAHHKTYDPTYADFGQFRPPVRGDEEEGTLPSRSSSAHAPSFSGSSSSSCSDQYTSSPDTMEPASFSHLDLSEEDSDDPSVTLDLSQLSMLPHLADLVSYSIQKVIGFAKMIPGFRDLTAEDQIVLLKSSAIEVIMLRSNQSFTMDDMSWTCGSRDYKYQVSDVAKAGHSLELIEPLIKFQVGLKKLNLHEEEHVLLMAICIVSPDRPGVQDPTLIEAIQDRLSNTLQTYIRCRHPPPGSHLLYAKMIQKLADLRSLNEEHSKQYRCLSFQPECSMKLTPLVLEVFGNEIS
Procedure: The vitamin D activity of the substances according to the invention is determined with the aid of the calcitriol-receptor test. It is carried out with use of a specific receptor protein from the intestines of juvenile pigs.
Then, the samples are centrifuged at 10,000×g for 5 minutes at 4° C. The supernatant is decanted and measured in a β-counter after 1 hour of equilibration in Picofluor 15™.
The competition curves that are obtained with various concentrations of test substance as well as of reference substance (unlabeled calcitriol) at constant concentration of the reference substance (^3H-calcitriol) are placed in relation to one another and a competition factor (KF) is determined.
It is defined as a quotient of the concentrations of the respective test substance and the reference substance, which are necessary for 50% competition: [formula]

HL 60 cells [2] = assay: antagonism of the action of calcitriol in HL 60 cells; assay type: cell-based, human

## C=C1C(=CC=C2CCCC3(C)C2CCC3C(C)(C)C=CC(O)C2(C(C)=O)CC2)CC(O)CC1O [Compound 33a, (5Z,7E,22E)-(1S,3R,24S)-25-acetyl-20-methyl-26,27-cyclo-9,10-secocholesta-5,7,10(19),22-tetraene-1,3,24-triol]
HL 60 cells [1]
  Dose Ratio for Differentiation Induction in HL 60 Cells: 0.5
Calcitriol receptor
  Competition Factor KF for Receptor Bonding: 4

## CCCCC(=O)C1([C@H](O)/C=C/[C@@H](C)[C@H]2CC[C@H]3/C(=C/C=C4C[C@@H](O)C[C@H](O)C4)CCC[C@]23C)CC1 [Compound 58b, (7E,22E)-(1R,3R,24R)-25-(1-Oxopentyl)-26,27-cyclo-19-nor-9,10-secocholesta-5,7,22-triene-1,3,24-triol]
HL 60 cells [1]
  Dose Ratio for Differentiation Induction in HL 60 Cells: 160
HL 60 cells [2]
  antagonism of the action of calcitriol in HL 60 cells: antagonize the action of calcitriol
Calcitriol receptor
  Competition Factor KF for Receptor Bonding: 3

## CCCCCCC(=O)C1([C@@H](O)/C=C/[C@@H](C)[C@H]2CC[C@H]3/C(=C/C=C4C[C@@H](O)C[C@H](O)C4)CCC[C@]23C)CC1 [Compound 64a, (7E,22E)-(1R,3R,24S)-25-(1-Oxoheptyl)-26,27-cyclo-19-nor-9,10-secocholesta-5,7,22-triene-1,3,24-triol]
HL 60 cells [1]
  Dose Ratio for Differentiation Induction in HL 60 Cells: 120
HL 60 cells [2]
  antagonism of the action of calcitriol in HL 60 cells: antagonize the action of calcitriol
Calcitriol receptor
  Competition Factor KF for Receptor Bonding: 3.5

## C=C1/C(=C\C=C2/CCC[C@]3(C)[C@@H]([C@H](C)/C=C/[C@@H](O)C4(/C=C/C(=O)OC(C)(C)C)CC4)CC[C@@H]23)C[C@@H](O)C[C@@H]1O [Compound 26b, [5Z,7E,22E,25(E)]-(1S,3R,24R)-25-[3-(1,1-Dimethylethoxy)-3-oxo-1-propenyl]-26,27-cyclo-9,10-secocholesta-5,7,10(19),22-tetraene-1,3,24-triol]
HL 60 cells [1]
  Dose Ratio for Differentiation Induction in HL 60 Cells: >1000
HL 60 cells [2]
  antagonism of the action of calcitriol in HL 60 cells: antagonize the action of calcitriol
Calcitriol receptor
  Competition Factor KF for Receptor Bonding: 4

## C=C1C(=CC=C2CCCC3(C)C2CCC3C(C)(C)C=CC(O)C2(C(C)=O)CC2)CC(O)CC1O [Compound 33b, (5Z,7E,22E)-(1S,3R,24R)-25-acetyl-20-methyl-26,27-cyclo-9,10-secocholesta-5,7,10(19),22-tetraene-1,3,24-triol]
HL 60 cells [1]
  Dose Ratio for Differentiation Induction in HL 60 Cells: 0.4
Calcitriol receptor
  Competition Factor KF for Receptor Bonding: 4

## C=C1/C(=C\C=C2/CCC[C@]3(C)[C@@H]([C@H](C)/C=C/[C@@H](O)C4(C(=O)c5ccccc5)CC4)CC[C@@H]23)C[C@@H](O)C[C@@H]1O [Compound 10b, (5Z,7E,22E)-(1S,3R,24R)-25-benzoyl-26,27-cyclo-9,10-secocholesta-5,7,10(19),22-tetraene-1,3,24-triol]
HL 60 cells [1]
  Dose Ratio for Differentiation Induction in HL 60 Cells: 6
Calcitriol receptor
  Competition Factor KF for Receptor Bonding: 2

## C=C1/C(=C\C=C2/CCC[C@]3(C)[C@@H](C(C)(C)/C=C/[C@H](O)C4(C(=O)CCCCCCC)CC4)CC[C@@H]23)C[C@@H](O)C[C@@H]1O [Compound 43a, (5Z,7E,22E)-(1S,3R,24S)-20-methyl-25-(1-oxooctyl)-26,27-cyclo-9,10-secocholesta-5,7,10(19),22-tetraene-1,3,24-triol]
HL 60 cells [1]
  Dose Ratio for Differentiation Induction in HL 60 Cells: >1000
HL 60 cells [2]
  antagonism of the action of calcitriol in HL 60 cells: antagonize the action of calcitriol
Calcitriol receptor
  Competition Factor KF for Receptor Bonding: 48

## CC(=O)C1(C(O)C=CC(C)(C)C2CCC3C(=CC=C4CC(O)CC(O)C4)CCCC32C)CC1 [Compound 81a, (7E,22E)-(1R,3R,24S)-25-Acetyl-20-methyl-26,27-cyclo-19-nor-9,10-secocholesta-5,7,22-triene-1,3,24-triol]
HL 60 cells [1]
  Dose Ratio for Differentiation Induction in HL 60 Cells: 0.2
Calcitriol receptor
  Competition Factor KF for Receptor Bonding: 10

## CCCCCC(=O)C1([C@H](O)/C=C/C(C)(C)[C@H]2CC[C@H]3/C(=C/C=C4C[C@@H](O)C[C@H](O)C4)CCC[C@]23C)CC1 [Compound 87b, (7E,22E)-(1R,3R,24R)-20-methyl-25-(1-oxohexyl)-26,27-cyclo-19-nor-9,10-secocholesta-5,7,22-triene-1,3,24-triol]
HL 60 cells [1]
  Dose Ratio for Differentiation Induction in HL 60 Cells: 116
HL 60 cells [2]
  antagonism of the action of calcitriol in HL 60 cells: antagonize the action of calcitriol
Calcitriol receptor
  Competition Factor KF for Receptor Bonding: 3

## C=C1/C(=C\C=C2/CCC[C@]3(C)[C@@H]([C@H](C)/C=C/[C@@H](O)C4(C(=O)CCCCC)CC4)CC[C@@H]23)C[C@@H](O)C[C@@H]1O [Compound 9b, (5Z,7E,22E)-(1S,3R,24R)-25-(1-Oxohexyl)-26,27-cyclo-9,10-secocholesta-5,7,10(19),22-tetraene-1,3,24-triol]
HL 60 cells [1]
  Dose Ratio for Differentiation Induction in HL 60 Cells: >180
HL 60 cells [2]
  antagonism of the action of calcitriol in HL 60 cells: antagonize the action of calcitriol
Calcitriol receptor
  Competition Factor KF for Receptor Bonding: 3

## C=C1C(=CC=C2CCCC3(C)C2CCC3C(C)(C)C=CC(O)C2(C(=O)CCC)CC2)CC(O)CC1O [Compound 35b, (5Z,7E,22E)-(1S,3R,24R)-20-methyl-25-(1-oxobutyl)-26,27-cyclo-9,10-secocholesta-5,7,10(19),22-tetraene-1,3,24-triol]
HL 60 cells [1]
  Dose Ratio for Differentiation Induction in HL 60 Cells: 0.2
Calcitriol receptor
  Competition Factor KF for Receptor Bonding: 2

## CCCCCC(=O)C1([C@H](O)/C=C/[C@@H](C)[C@H]2CC[C@H]3/C(=C/C=C4C[C@@H](O)C[C@H](O)C4)CCC[C@]23C)CC1 [Compound 61b, (7E,22E)-(1R,3R,24R)-25-(1-Oxohexyl)-26,27-cyclo-19-nor-9,10-secocholesta-5,7,22-triene-1,3,24-triol]
HL 60 cells [1]
  Dose Ratio for Differentiation Induction in HL 60 Cells: >1000
HL 60 cells [2]
  antagonism of the action of calcitriol in HL 60 cells: antagonize the action of calcitriol
Calcitriol receptor
  Competition Factor KF for Receptor Bonding: 3

## CC(=O)C1(C(O)C=CC(C)C2CCC3C(=CC=C4CC(O)CC(O)C4)CCCC32C)CC1 [Compound 55b, (7E,22E)-(1R,3R,24R)-25-Acetyl-26,27-cyclo-19-nor-9,10-secocholesta-5,7,22-triene-1,3,24-triol]
HL 60 cells [1]
  Dose Ratio for Differentiation Induction in HL 60 Cells: 0.2
Calcitriol receptor
  Competition Factor KF for Receptor Bonding: 4.5

## C=C1C(=CC=C2CCCC3(C)C2CCC3C(C)C=CC(O)C2(C(=O)C3CC3)CC2)CC(O)CC1O [Compound 12b, (5Z,7E,22E)-(1S,3R,24R)-25-(Cyclopropylcarbonyl)-26,27-cyclo-9,10-secocholesta-5,7,10(19),22-tetraene-1,3,24-triol]
HL 60 cells [1]
  Dose Ratio for Differentiation Induction in HL 60 Cells: 0.2
Calcitriol receptor
  Competition Factor KF for Receptor Bonding: 2

## C=C1/C(=C\C=C2/CCC[C@]3(C)[C@@H](C(C)(C)/C=C/[C@@H](O)C4(C(=O)CCCCCCC)CC4)CC[C@@H]23)C[C@@H](O)C[C@@H]1O [Compound 43b, (5Z,7E,22E)-(1S,3R,24R)-20-methyl-25-(1-oxooctyl)-26,27-cyclo-9,10-secocholesta-5,7,10(19),22-tetraene-1,3,24-triol]
HL 60 cells [1]
  Dose Ratio for Differentiation Induction in HL 60 Cells: >1000
HL 60 cells [2]
  antagonism of the action of calcitriol in HL 60 cells: antagonize the action of calcitriol
Calcitriol receptor
  Competition Factor KF for Receptor Bonding: 33

## C=C1/C(=C\C=C2/CCC[C@]3(C)[C@@H]([C@H](C)/C=C/[C@@H](O)C4(/C=C/C(=O)OCC)CC4)CC[C@@H]23)C[C@@H](O)C[C@@H]1O [Compound 24b, [5Z,7E,22E,25(E)]-(1S,3R,24R)-25-(3-Ethoxy-3-oxo-1-propenyl)-26,27-cyclo-9,10-secocholesta-5,7,10(19),22-tetraene-1,3,24-triol]
HL 60 cells [1]
  Dose Ratio for Differentiation Induction in HL 60 Cells: >1000
HL 60 cells [2]
  antagonism of the action of calcitriol in HL 60 cells: antagonize the action of calcitriol
Calcitriol receptor
  Competition Factor KF for Receptor Bonding: 4

## C=C1C(=CC=C2CCCC3(C)C2CCC3C(C)(C)C=CC(O)C2(C(=O)CCC)CC2)CC(O)CC1O [Compound 35a, (5Z,7E,22E)-(1S,3R,24S)-20-methyl-25-(1-oxobutyl)-26,27-cyclo-9,10-secocholesta-5,7,10(19),22-tetraene-1,3,24-triol]
HL 60 cells [1]
  Dose Ratio for Differentiation Induction in HL 60 Cells: 0.3
Calcitriol receptor
  Competition Factor KF for Receptor Bonding: 7

## CC(=O)C1(C(O)C=CC(C)(C)C2CCC3C(=CC=C4CC(O)CC(O)C4)CCCC32C)CC1 [Compound 81b, (7E,22E)-(1R,3R,24R)-25-acetyl-20-methyl-26,27-cyclo-19-nor-9,10-secocholesta-5,7,22-triene-1,3,24-triol]
HL 60 cells [1]
  Dose Ratio for Differentiation Induction in HL 60 Cells: 0.1
Calcitriol receptor
  Competition Factor KF for Receptor Bonding: 3
